Measured values as given in US11000033B2, “Ketone or oxime compound, and herbicide” (NISSAN CHEMICAL CORPORATION, priority 2014, dated 2021).

What was measured:
Assay type in all cases: in vivo
[1] = test system: Echinochloa crus-galli var. crus-galli; assay: Test Example 5: herbicidal effect by foliage application, plastic box (symbol H); details: 3 weeks after application
Outline: (§1)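 Sowing in sterilized diluvial soil, 14 days' greenhouse growth at 25° C. to 30° C., then uniform small-sprayer foliar application of aqueous emulsion dilution; plants scored three weeks afterwards.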

rice = assay: Test Example 4: effect on crop by soil treatment (symbol b); details: for Effect on crop grade, b: directly sowed rice plant: application herbicide amount 320 g/ha
Outline: (§2)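 The test used sterilized diluvial soil. Seed was set down in spots and overlaid with about 1.5 cm of soil before growth in a greenhouse kept at 25° C. to 30° C.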

Monochoria vaginalis = assay: Test Example 1: herbicidal activity, application before weed generation in submerged conditions (symbol C); details: for C (Monochoria vaginalis) herbicidal effect grade: application herbicide amount 320 g/ha
Outline: (§3)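 Paddy pre-emergence test. Formulated emulsion, water-diluted to a predetermined rate, is applied to floodwater on sowing day; rice transplanted at 2.5 leaves. Effect read at 3 weeks on a 0–5 herbicidal-ratio scale.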

Setaria viridis = assay: Test Example 5: herbicidal effect by foliage application, plastic box (symbol G); details: 3 weeks after application
Outline: as §1

corn = assay: Test Example 4: effect on crop by soil treatment (symbol c); details: for Effect on crop grade, c: corn: application herbicide amount 320 g/ha
Outline: as §2

rapeseed [2] = assay: Test Example 4: effect on crop by soil treatment (symbol g); details: for Effect on crop grade, g: rapeseed: application herbicide amount 320 g/ha
Outline: as §2

Amaranthus retroflexus [3] = assay: Test Example 4: herbicidal effect by soil treatment (symbol N); details: for Herbicidal effect grade, N: Amaranthus retroflexus: application herbicide amount 320 g/ha
Outline: (§4)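 Seeds were sown in sterilized diluvial soil, covered with about 1.5 cm of soil, and the soil surface was sprayed with a water-diluted emulsion of the compound at a predetermined rate. Plants grew in a greenhouse at 25° C. to 30° C.; effects were scored visually 3 weeks after application.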

[4] = test system: Echinochloa oryzacola Vasing.; assay: Test Example 1: herbicidal activity, application before weed generation in submerged conditions (symbol A); details: for A (Echinochloa oryzacola Vasing.) herbicidal effect grade: application herbicide amount 320 g/ha
Outline: as §3

Cyperus difformis = assay: Test Example 3: herbicidal effect by foliage application, Wagner pot (symbol E); details: for E herbicidal effect grade: application herbicide amount 320 g/ha, Table 24
Outline: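 In a shallow-flooded alluvial soil system held at 25–30 °C, plants including rice grew for 14 days and were then sprayed over the foliage with emulsion diluted to a fixed herbicide amount. Visual rating followed at 3 weeks.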

[5] = test system: directly sowed rice plant; assay: Test Example 3: effect on crop by foliage application, Wagner pot (symbol b); details: for b (directly sowed rice plant) effect on crop grade: application herbicide amount 320 g/ha, Table 24
Outline: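 Steps: fill a 1/10000-are Wagner pot with alluvial soil; add water and mix to submerge at 0.1–0.5 cm depth; sow rice plus Echinochloa crus-galli var. crus-galli, Leptochloa chinensis and Cyperus difformis; grow in a 25–30 °C greenhouse.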

Stellaria media = assay: Test Example 4: herbicidal effect by soil treatment (symbol P); details: for Herbicidal effect grade, P: Stellaria media: application herbicide amount 320 g/ha
Outline: as §4

rapeseed [6] = assay: Test Example 5: effect on crop by foliage application, plastic box (symbol g); details: 3 weeks after application
Outline: (§5)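 Foliage-application test plants come from spot sowing in sterilized diluvial soil under a soil layer of about 1.5 cm, grown at 25° C. to 30° C. in a greenhouse.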

beet = assay: Test Example 5: effect on crop by foliage application, plastic box (symbol f); details: 3 weeks after application
Outline: as §5

[7] = test system: Echinochloa crus-galli var. crus-galli; assay: Test Example 4: herbicidal effect by soil treatment (symbol H); details: for Herbicidal effect grade, H: Echinochloa crus-galli var. crus-galli: application herbicide amount 320 g/ha
Outline: as §4

Scirpus juncoides = assay: Test Example 1: herbicidal activity, application before weed generation in submerged conditions (symbol B); details: for B (Scirpus juncoides) herbicidal effect grade: application herbicide amount 320 g/ha
Outline: as §3

Amaranthus retroflexus [8] = assay: Test Example 5: herbicidal effect by foliage application, plastic box (symbol N); details: 3 weeks after application
Outline: as §1

[9] = application herbicide amount 102 g/ha
[10] = application herbicide amount 269 g/ha

Structure (SMILES) | H: Echinochloa crus-galli var. crus-galli, herbicidal effect grade ([1]; 320 g/ha) | Effect on crop grade, b: directly sowed rice plant (rice) | C (Monochoria vaginalis) herbicidal effect grade (Monochoria vaginalis) | G: Setaria viridis, herbicidal effect grade (Setaria viridis; 320 g/ha) | Effect on crop grade, c: corn (corn) | Effect on crop grade, g: rapeseed (rapeseed [2]) | Herbicidal effect grade, N: Amaranthus retroflexus (Amaranthus retroflexus [3]) | A (Echinochloa oryzacola Vasing.) herbicidal effect grade [4] | E herbicidal effect grade (Cyperus difformis) | b (directly sowed rice plant) effect on crop grade [5] | Herbicidal effect grade, P: Stellaria media (Stellaria media) | g: rapeseed, effect on crop grade (rapeseed [6]; 320 g/ha) | f: beet, effect on crop grade (beet; 320 g/ha) | Herbicidal effect grade, H: Echinochloa crus-galli var. crus-galli [7] | B (Scirpus juncoides) herbicidal effect grade (Scirpus juncoides) | N: Amaranthus retroflexus, herbicidal effect grade (Amaranthus retroflexus [8]; 320 g/ha) | further results
CC(=O)CC1CC(O)=C(c2c(C)cc(C)cc2C)C1=O (centres unmarked) [2-001, 3-hydroxy-2-mesityl-5-(2-oxopropyl)cyclopent-2-enone] |  |  |  |  |  |  |  |  |  |  |  |  |  |  |  |  | H: Echinochloa crus-galli var. crus-galli, herbicidal effect grade ([1]; 102 g/ha): 5 (Herbicidal ratio of 90% or more (almost completely withered)); b: directly sowed rice plant, effect grade on crop (rice; 102 g/ha): 5 (Herbicidal ratio of 90% or more (almost completely withered)); Herbicidal effect grade, C: Monochoria vaginalis (Monochoria vaginalis; [9]): 0 (Herbicidal ratio of 5% or lower (almost no effect)); G: Setaria viridis, herbicidal effect grade (Setaria viridis; 102 g/ha): 4 (Herbicidal ratio of 70% or higher and lower than 90%); c: corn, effect grade on crop (corn; 102 g/ha): 4 (Herbicidal ratio of 70% or higher and lower than 90%); g: rapeseed, effect grade on crop (rapeseed [2]; 102 g/ha): 3 (Herbicidal ratio of 40% or higher and lower than 70%); N: Amaranthus retroflexus, herbicidal effect grade (Amaranthus retroflexus [3]; 102 g/ha): 1 (Herbicidal ratio of 5% or higher and lower than 20%); Herbicidal effect grade, A: Echinochloa oryzacola Vasing. [4, 9]: 4 (Herbicidal ratio of 70% or higher and lower than 90%); herbicidal effect on E, grade 0-5 (Cyperus difformis; [9]): 5 (Herbicidal ratio of 90% or more (almost completely withered)); effect on crop b (directly sowed rice plant), grade 0-5 [5, 9]: 5 (Herbicidal ratio of 90% or more (almost completely withered)); P: Stellaria media, herbicidal effect grade (Stellaria media; 102 g/ha): 0 (Herbicidal ratio of 5% or lower (almost no effect)); g: rapeseed, effect on crop grade (rapeseed [6]; 102 g/ha): 4 (Herbicidal ratio of 70% or higher and lower than 90%); f: beet, effect on crop grade (beet; 102 g/ha): 1 (Herbicidal ratio of 5% or higher and lower than 20%); H: Echinochloa crus-galli var. crus-galli, herbicidal effect grade ([7]; 102 g/ha): 5 (Herbicidal ratio of 90% or more (almost completely withered)); Herbicidal effect grade, B: Scirpus juncoides (Scirpus juncoides; [9]): 0 (Herbicidal ratio of 5% or lower (almost no effect)); N: Amaranthus retroflexus, herbicidal effect grade (Amaranthus retroflexus [8]; 102 g/ha): 2 (Herbicidal ratio of 20% or higher and lower than 40%)
CC(=O)C(C)C1CC(O)=C(c2c(C)cc(C)cc2C)C1=O (centres unmarked) [2-005] |  |  |  |  |  |  |  |  |  |  |  |  |  |  |  |  | H: Echinochloa crus-galli var. crus-galli, herbicidal effect grade ([1]; 269 g/ha): 5 (Herbicidal ratio of 90% or more (almost completely withered)); b: directly sowed rice plant, effect on crop grade (rice; [10]): 5 (Herbicidal ratio of 90% or more (almost completely withered)); Herbicidal effect grade, C: Monochoria vaginalis (Monochoria vaginalis; [10]): 0 (Herbicidal ratio of 5% or lower (almost no effect)); G: Setaria viridis, herbicidal effect grade (Setaria viridis; 269 g/ha): 4 (Herbicidal ratio of 70% or higher and lower than 90%); c: corn, effect on crop grade (corn; [10]): 0 (Herbicidal ratio of 5% or lower (almost no effect)); g: rapeseed, effect on crop grade (rapeseed [2]; [10]): 4 (Herbicidal ratio of 70% or higher and lower than 90%); N: Amaranthus retroflexus, herbicidal effect grade (Amaranthus retroflexus [3]; [10]): 0 (Herbicidal ratio of 5% or lower (almost no effect)); Herbicidal effect grade, A: Echinochloa oryzacola Vasing. [4, 10]: 3 (Herbicidal ratio of 40% or higher and lower than 70%); herbicidal effect on E, grade 0-5 (Cyperus difformis; [10]): 4 (Herbicidal ratio of 70% or higher and lower than 90%); effect on crop b (directly sowed rice plant), grade 0-5 [5, 10]: 5 (Herbicidal ratio of 90% or more (almost completely withered)); P: Stellaria media, herbicidal effect grade (Stellaria media; [10]): 0 (Herbicidal ratio of 5% or lower (almost no effect)); g: rapeseed, effect on crop grade (rapeseed [6]; 269 g/ha): 4 (Herbicidal ratio of 70% or higher and lower than 90%); f: beet, effect on crop grade (beet; 269 g/ha): 2 (Herbicidal ratio of 20% or higher and lower than 40%); H: Echinochloa crus-galli var. crus-galli, herbicidal effect grade [7, 10]: 5 (Herbicidal ratio of 90% or more (almost completely withered)); Herbicidal effect grade, B: Scirpus juncoides (Scirpus juncoides; [10]): 0 (Herbicidal ratio of 5% or lower (almost no effect)); N: Amaranthus retroflexus, herbicidal effect grade (Amaranthus retroflexus [8]; 269 g/ha): 0 (Herbicidal ratio of 5% or lower (almost no effect))
CC#Cc1cc(C)c(C2=C(O)CC(CC(=NOC)C(C)C)C2=O)c(C)c1 (centres unmarked) [9-006] | 5 (Herbicidal ratio of 90% or more (almost completely withered)) | 5 (Herbicidal ratio of 90% or more (almost completely withered)) | 0 (Herbicidal ratio of 5% or lower (almost no effect)) | 5 (Herbicidal ratio of 90% or more (almost completely withered)) | 5 (Herbicidal ratio of 90% or more (almost completely withered)) | 3 (Herbicidal ratio of 40% or higher and lower than 70%) | 2 (Herbicidal ratio of 20% or higher and lower than 40%) | 5 (Herbicidal ratio of 90% or more (almost completely withered)) | 5 (Herbicidal ratio of 90% or more (almost completely withered)) | 5 (Herbicidal ratio of 90% or more (almost completely withered)) | 0 (Herbicidal ratio of 5% or lower (almost no effect)) | 4 (Herbicidal ratio of 70% or higher and lower than 90%) | 0 (Herbicidal ratio of 5% or lower (almost no effect)) | 5 (Herbicidal ratio of 90% or more (almost completely withered)) | 4 (Herbicidal ratio of 70% or higher and lower than 90%) | 0 (Herbicidal ratio of 5% or lower (almost no effect)) | 
CON=C(CC1CC(O)=C(c2c(C)cc(-n3cc(Cl)cn3)cc2C)C1=O)C1CC1 (centres unmarked) [9-007] | 5 (Herbicidal ratio of 90% or more (almost completely withered)) | 5 (Herbicidal ratio of 90% or more (almost completely withered)) | 0 (Herbicidal ratio of 5% or lower (almost no effect)) | 5 (Herbicidal ratio of 90% or more (almost completely withered)) | 0 (Herbicidal ratio of 5% or lower (almost no effect)) | 0 (Herbicidal ratio of 5% or lower (almost no effect)) | 0 (Herbicidal ratio of 5% or lower (almost no effect)) | 5 (Herbicidal ratio of 90% or more (almost completely withered)) | 5 (Herbicidal ratio of 90% or more (almost completely withered)) | 5 (Herbicidal ratio of 90% or more (almost completely withered)) | 0 (Herbicidal ratio of 5% or lower (almost no effect)) | 4 (Herbicidal ratio of 70% or higher and lower than 90%) | 0 (Herbicidal ratio of 5% or lower (almost no effect)) | 3 (Herbicidal ratio of 40% or higher and lower than 70%) | 4 (Herbicidal ratio of 70% or higher and lower than 90%) | 0 (Herbicidal ratio of 5% or lower (almost no effect)) | 
CC#Cc1cc(C)c(C2=C(O)CC(CC(=NOC)C3CC3)C2=O)c(C)c1 (centres unmarked) [9-008] | 5 (Herbicidal ratio of 90% or more (almost completely withered)) | 5 (Herbicidal ratio of 90% or more (almost completely withered)) | 4 (Herbicidal ratio of 70% or higher and lower than 90%) | 5 (Herbicidal ratio of 90% or more (almost completely withered)) | 4 (Herbicidal ratio of 70% or higher and lower than 90%) | 4 (Herbicidal ratio of 70% or higher and lower than 90%) | 4 (Herbicidal ratio of 70% or higher and lower than 90%) | 5 (Herbicidal ratio of 90% or more (almost completely withered)) | 5 (Herbicidal ratio of 90% or more (almost completely withered)) | 5 (Herbicidal ratio of 90% or more (almost completely withered)) | 0 (Herbicidal ratio of 5% or lower (almost no effect)) | 4 (Herbicidal ratio of 70% or higher and lower than 90%) | 0 (Herbicidal ratio of 5% or lower (almost no effect)) | 5 (Herbicidal ratio of 90% or more (almost completely withered)) | 5 (Herbicidal ratio of 90% or more (almost completely withered)) | 0 (Herbicidal ratio of 5% or lower (almost no effect)) | 
